Results from patent publication US12336536B2, “Method for controlling herbicide resistant or tolerant weeds” (BASF Agro B.V., priority 2015, dated 2025).

Assays:
[1] = system: GALAP; assay: Greenhouse test, solo and combination, post-emergence, 20 DAT; type: in vivo, Galium aparine
Experimental: (§1) The test plants have been seeded, separately for each species, in plastic containers in sandy loamy soil containing 5% of organic matter.
(§2) For the post-emergence treatment, the plants were first grown to the 2 leaf station (GS 12) and applied at GS 12-19 depending on the species. The herbicidal compositions were suspended or emulsified in water as distribution medium and sprayed using finely distributing nozzles.
(§3) The plants have been cultivated due to their individual requirements at 10-25° C. and 20-35° C. The plants were irrigated due to their necessity.
(§4) The racemic mixture (±)-2-exo-(2-Methylbenzyloxy)-1-methyl-4-isopropyl-7-oxabicyclo[2.2.1]heptane was used as herbicide A and formulated as emulsifiable concentrate having an active ingredient concentration of 750 g/l.
(§5) Cyhalofop-butyl (herbicide B.5) was used as an emulsifiable concentrate (EC) formulation having an active ingredient concentration of 200 g/l.
(§6) Metsulfuron-methyl (herbicide B.53) was used as a water soluble granule (SG) formulation having an active ingredient concentration of 20%.
(§7) Bispyribac-sodium (herbicide B.23) was used as a soluble concentrate (SL) formulation having an active ingredient concentration of 408 g/l.
(§8) Quizalofop-P-ethyl (herbicide B.217) was used as a suspension concentrate (SC) formulation having an active ingredient concentration of 106 g/l.
(§9) In the following experiments, the herbicidal activity for the individual herbicide compounds (solo and mixture applications) was assessed 20 days after treatment (DAT).
(§10) The evaluation for the damage on undesired weeds caused by the chemical compositions was carried out using a scale from 0 to 100%, compared to the untreated control plants. Here, 0 means no damage and 100 means complete destruction of the plants.
(§11) The plants used in the greenhouse experiments belonged to the following species:
(§12) E=X+Y−(X·Y/100) • where X=effect in percent using herbicide A at an application rate a; • Y=effect in percent using herbicide B at application rate b; • E=expected effect (in %) of herbicide A+herbicide B at application rates a+b.
(§13) The value E corresponds to the effect (plant damage or injury) which is to be expected if the activity of the individual compounds is additive. If the observed effect is higher than the value E calculated according to the Colby equation, a synergistic effect is present.
(§14) Tables 3 to 6 below relate the herbicidal activity, in greenhouse trials, of the individual actives and the combination applied at different rates and ratios, in post-emergence application at 20 days after treatment (DAT).

[2] = system: BROST; assay: as above; type: in vivo, Bromus sterilis
Experimental: as §1, §2, §3, §4, §5, §6, §7, §8, §9, §10, §11, §12, §13, §14

[3] = system: BRSNW; assay: as above; type: in vivo, Brassica napus
Experimental: as §1, §2, §3, §4, §5, §6, §7, §8, §9, §10, §11, §12, §13, §14

[4] = system: LOLRI; assay: as above; type: in vivo, Lolium rigidum
Experimental: as §1, §2, §3, §4, §5, §6, §7, §8, §9, §10, §11, §12, §13, §14

[5] = system: PAPRH; assay: as above; type: in vivo, Papaver rhoeas
Experimental: as §1, §2, §3, §4, §5, §6, §7, §8, §9, §10, §11, §12, §13, §14

[6] = system: MATIN; assay: as above; type: in vivo, Matricaria inodora
Experimental: as §1, §2, §3, §4, §5, §6, §7, §8, §9, §10, §11, §12, §13, §14

[7] = system: ALOMY; assay: as above; type: in vivo, Alopecurus myosuroides
Experimental: as §1, §2, §3, §4, §5, §6, §7, §8, §9, §10, §11, §12, §13, §14

[8] = system: blackgrass (ALOMY) biotypes; assay: Greenhouse test, control of resistant weed biotypes, post-emergence, blackgrass; type: in vivo, Alopecurus myosuroides; details: for Herbicidal activity: post-emergence, scale 0 to 100
Experimental: The herbicidal activity of herbicide A on resistant weed biotypes was tested in comparison with certain commercial herbicides by the following greenhouse experiments:
The culture containers used were plastic flowerpots containing loamy sand with approximately 3.0% of humus as the substrate. The seeds of the test plants were sown separately for each species. Six blackgrass (ALOMY) (10-103, 10-170, 09-591, 10-123, 11-215, 11-146) and six ryeg rass (LOLMU) (12-166, 12-143, 12-165, 12-307, 13-304, 13-313) biotypes with varying degrees of resistance towards a range of modes of action according to the HRAC (Herbicide Resistance Action Committee) classification on mode of action 2010 (see e.g http://www.hracglobal.com/pages/classificationofherbicidesiteofaction.aspx) were tested alongside two non-resistant biotypes (14-116 and 13-243), see Tables 1 and 2 below.
For the post-emergence treatment, the test plants were first grown to a height of 3 to 15 cm, depending on the plant habit, and only then treated with the active ingredients which had been suspended or emulsified in water. For this purpose, the test plants were either sown directly and grown in the same containers, or they were first grown separately as seedlings and transplanted into the test containers a few days prior to treatment.
Depending on the species, the plants were kept at 10-25° C. or 20-35° C. The test period extended over 2 to 4 weeks. During this time, the plants were tended, and their response to the individual treatments was evaluated.
The racemic mixture (±)-2-exo-(2-Methylbenzyloxy)-1-methyl-4-isopropyl-7-oxabicyclo[2.2.1]heptane was used as herbicide A and formulated as emulsifiable concentrates with an active ingredient concentration of 50 g/l, 100 g/l or 750 g/l respectively.
Flufenacet was used as a commercial concentrated solution formulation having an active ingredient concentration of 500 g/l (Cadou).
Imazamox was used as a water dispersible granule (70% WG).
Evaluation of the herbicidal activity was carried out using a scale from 0 to 100. 100 means complete destruction of at least the aerial moieties, and 0 means no damage, or normal course of growth. A good herbicidal activity is given at values of at least 70 and a very good herbicidal activity is given at values of at least 85.

(±)-2-exo-(2-Methylbenzyloxy)-1-methyl-4-isopropyl-7-oxabicyclo[2.2.1]heptane [Herbicide A]
Herbicidal activity ([1]; solo application 62.5 g ai/ha): 25%
Herbicidal activity ([1]; solo application 125 g ai/ha): 35%
Herbicidal activity ([1]; solo application 250 g ai/ha): 35%
Herbicidal activity ([1]; solo application 500 g ai/ha): 45%
Herbicidal activity ([2]; solo application 62.5 g ai/ha): 0%
Herbicidal activity ([2]; solo application 125 g ai/ha): 0%
Herbicidal activity ([2]; solo application 250 g ai/ha): 15%
Herbicidal activity ([2]; solo application 500 g ai/ha): 25%
Herbicidal activity ([3]; solo application 62.5 g ai/ha): 0%
Herbicidal activity ([3]; solo application 125 g ai/ha): 0%
Herbicidal activity ([3]; solo application 500 g ai/ha): 0%
Herbicidal activity ([4]; solo application 62.5 g ai/ha): 15%
Herbicidal activity ([4]; solo application 125 g ai/ha): 30%
Herbicidal activity ([4]; solo application 250 g ai/ha): 50%
Herbicidal activity ([5]; solo application 62.5 g ai/ha): 0%
Herbicidal activity ([5]; solo application 250 g ai/ha): 40%
Herbicidal activity ([5]; solo application 500 g ai/ha): 60%
Herbicidal activity ([6]; solo application 62.5 g ai/ha): 0%
Herbicidal activity ([6]; solo application 125 g ai/ha): 0%
Herbicidal activity ([6]; solo application 250 g ai/ha): 0%
Herbicidal activity ([6]; solo application 500 g ai/ha): 25%
Herbicidal activity ([7]; solo application 62.5 g ai/ha): 30%
Herbicidal activity ([7]; solo application 125 g ai/ha): 55%
Herbicidal activity ([7]; solo application 250 g ai/ha): 70%
Herbicidal activity ([7]; solo application 500 g ai/ha): 80%
Herbicidal activity ([8]; BT 09-591, resistant HRAC group A, B, K, 125 g ai/ha): 80
Herbicidal activity ([8]; BT 09-591, resistant HRAC group A, B, K, 250 g ai/ha): 95
Herbicidal activity ([8]; BT 10-103, resistant HRAC group A, B, K, 125 g ai/ha): 80
Herbicidal activity ([8]; BT 10-103, resistant HRAC group A, B, K, 250 g ai/ha): 95
Herbicidal activity ([8]; BT 10-123, resistant HRAC group A, B, C, 125 g ai/ha): 85
Herbicidal activity ([8]; BT 10-123, resistant HRAC group A, B, C, 250 g ai/ha): 90
Herbicidal activity ([8]; BT 10-170, resistant HRAC group A, B, K, 125 g ai/ha): 85
Herbicidal activity ([8]; BT 10-170, resistant HRAC group A, B, K, 250 g ai/ha): 90
Herbicidal activity ([8]; BT 11-146, resistant HRAC group K, 125 g ai/ha): 90
Herbicidal activity ([8]; BT 11-146, resistant HRAC group K, 250 g ai/ha): 95
Herbicidal activity ([8]; BT 11-215, resistant HRAC group A, B, C, E, K, 125 g ai/ha): 80
Herbicidal activity ([8]; BT 11-215, resistant HRAC group A, B, C, E, K, 250 g ai/ha): 95
Herbicidal activity ([8]; BT 14-116, Sensitive standard, 125 g ai/ha): 65
Herbicidal activity ([8]; BT 14-116, Sensitive standard, 250 g ai/ha): 100
herbicidal activity (summary in words) ([8]; post-emergence treatment, various biotypes of blackgrass (ALOMY) with varying degrees of resistance): very good herbicidal activity (a very good herbicidal activity is given at values of at least 85)
